From patent US9732075B2, “Benzimidazole-proline derivatives” (IDORSIA PHARMACEUTICALS LTD, priority 2012, dated 2017)

Experiments:
human orexin-2 receptor = human orexin-2 receptor (Homo sapiens (Human), UniProt O43614); test: In vitro assay: intracellular calcium measurements (FLIPR), antagonistic activity; assay type: cell-based; conditions: CHO cells expressing human orexin-2 receptor, orexin-A agonist, geometric mean, read-out: IC50 Ox2
Procedure, shortened: (§1)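 Read-out: FLIPR fluo-4 calcium peak height in CHO cells bearing human orexin-1 or orexin-2 receptor, relative to orexin-A (approx. EC70) with vehicle. Antagonist preincubation 120 min; agonist orexin-A at 3 nM final. IC50 possibly normalized to an on-plate reference compound.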

human orexin-1 receptor = human orexin-1 receptor (Homo sapiens (Human), UniProt O43613); test: as above; assay type: cell-based; conditions: CHO cells expressing human orexin-1 receptor, orexin-A agonist, geometric mean, read-out: IC50 Ox1
Chain of human orexin-1 receptor (O43613 whole entry): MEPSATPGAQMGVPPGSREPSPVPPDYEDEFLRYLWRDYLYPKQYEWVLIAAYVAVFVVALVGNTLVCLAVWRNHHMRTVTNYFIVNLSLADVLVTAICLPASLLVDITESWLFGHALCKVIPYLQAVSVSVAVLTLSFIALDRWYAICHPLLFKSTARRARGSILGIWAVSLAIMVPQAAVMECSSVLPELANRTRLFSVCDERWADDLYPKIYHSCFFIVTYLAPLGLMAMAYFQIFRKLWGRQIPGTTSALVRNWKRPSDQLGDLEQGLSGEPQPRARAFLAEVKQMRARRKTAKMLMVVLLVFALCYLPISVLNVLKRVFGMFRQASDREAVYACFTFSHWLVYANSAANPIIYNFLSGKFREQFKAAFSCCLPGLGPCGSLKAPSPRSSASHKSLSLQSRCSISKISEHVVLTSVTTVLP
Procedure, shortened: as §1

Chain of human orexin-2 receptor (O43614 whole entry): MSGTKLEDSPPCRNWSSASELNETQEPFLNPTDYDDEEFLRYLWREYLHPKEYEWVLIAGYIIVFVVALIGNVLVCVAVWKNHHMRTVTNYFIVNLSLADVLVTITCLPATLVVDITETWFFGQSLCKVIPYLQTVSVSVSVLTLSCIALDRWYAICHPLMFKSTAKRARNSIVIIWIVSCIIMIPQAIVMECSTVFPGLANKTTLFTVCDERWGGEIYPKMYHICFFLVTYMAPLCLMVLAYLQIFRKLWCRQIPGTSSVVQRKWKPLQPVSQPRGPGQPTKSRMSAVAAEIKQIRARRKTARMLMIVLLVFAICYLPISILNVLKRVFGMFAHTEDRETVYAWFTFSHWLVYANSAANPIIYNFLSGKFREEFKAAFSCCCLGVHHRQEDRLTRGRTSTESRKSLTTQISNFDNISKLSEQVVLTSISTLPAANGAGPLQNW

Row | Structure (SMILES) | IC50 (human orexin-2 receptor) [nM] | IC50 (human orexin-1 receptor) [nM]
1 | C[C@@]1(c2nc3cc(C(F)(F)F)c(Cl)cc3[nH]2)CCCN1C(=O)c1cc(OC(F)(F)F)ccc1-n1nccn1 [Ex. 5.147] | 112 | 27
2 | Cc1ccc(-c2nc(C)sc2C(=O)N2CC[C@H](C)[C@H]2c2nc3cc(C)c(C)cc3[nH]2)cc1 [Ex. 4.88] | 182 | 11
3 | Cc1ccc(-c2ccc(C(F)(F)F)cc2)c(C(=O)N2CCC[C@@]2(C)c2nc3cc(C(F)(F)F)ccc3[nH]2)c1 [Ex. 5.183] | 1160 | 339
4 | COc1cc2nc([C@]3(C)CCCN3C(=O)c3ccccc3-n3cccn3)[nH]c2cc1OC [Ex. 5.81] | 130 | 258
5 | CCn1c([C@]2(C)CCCN2C(=O)c2cc(C)ccc2-c2ccc(F)cc2)nc2cc(C)c(C)cc21 [Ex. 7.16] | 21 | 8
6 | Cc1ccc(-c2cccc(F)c2)c(C(=O)N2CCC[C@@]2(C)c2nc3c(C)c(C)ccc3[nH]2)c1 [Ex. 5.109] | 4 | 3
7 | C=C1C[C@@H](c2nc3ccc(OC)cc3[nH]2)N(C(=O)c2nc(C)sc2-c2ccc(F)cc2)C1 [Example 6.1, (S)-(5-(4-fluorophenyl)-2-methylthiazol-4-yl)(2-(6-methoxy-1H-benzo[d]imidazol-2-yl)-4-methylenepyrrolidin-1-yl)methanone] | 33 | 367
8 | COc1cc2nc([C@@H]3[C@@H](C)CCN3C(=O)c3nc(C)sc3-c3ccc(C(F)(F)F)cc3)[nH]c2cc1OC [Ex. 4.50] | 4220 | 373
9 | C=C1C[C@@H](c2nc3cc(OC)ccc3[nH]2)N(C(=O)c2nc(C)sc2-c2ccc(Cl)cc2)C1 [Ex. 6.5] | 19 | 216
10 | C=C1C[C@@H](c2nc3c(Br)cccc3[nH]2)N(C(=O)c2nc(C)sc2-c2ccc(C)c(C)c2)C1 [Ex. 6.50] | 1 | 5
11 | CO[C@H]1CN(C(=O)c2cc(OC(F)(F)F)ccc2-n2nccn2)C(C)(c2nc3c(C)c(Cl)ccc3[nH]2)C1 (stereo partly drawn) [Ex. 3.51] | 44 | 94
12 | Cc1ccc(-c2cccnc2)c(C(=O)N2CC[C@H](C)[C@H]2c2nc3c(C)c(Cl)ccc3[nH]2)c1 [Ex. 4.163] | 4400 | 20
13 | COc1ccc(-c2ccccc2F)c(C(=O)N2CCC[C@@]2(C)c2nc3c(C)c(Cl)ccc3[nH]2)c1F [Ex. 5.298] | 21 | 15
14 | COc1cc(C(=O)N2CCC[C@@]2(C)c2nc3cc(C(F)(F)F)c(Cl)cc3[nH]2)c(-n2nccn2)cc1OC [Ex. 5.135] | 49 | 10
15 | Cc1ccc(-c2cccc(C(F)(F)F)c2)c(C(=O)N2CCC[C@@]2(C)c2nc3cc(C(F)(F)F)ccc3[nH]2)c1 [Ex. 5.195] | 102 | 73
16 | Cc1ccc(-n2nccn2)c(C(=O)N2CCC[C@@]2(C)c2nc3cc(OC(F)(F)F)ccc3[nH]2)c1 [Ex. 5.20] | 161 | 19
17 | Cc1nc(C(=O)N2CC[C@H](C)[C@H]2c2nc3cc(C(F)(F)F)ccc3[nH]2)c(-c2ccccc2Cl)s1 [Ex. 4.146] | 2110 | 6
18 | Cc1nc(C(=O)N2CC[C@H](C)[C@H]2c2nc3c(Cl)cccc3[nH]2)c(-c2ccc(C)c(C)c2)s1 [Ex. 4.125] | 81 | 1
19 | C=C1C[C@@H](c2nc3cc(OC)ccc3[nH]2)N(C(=O)c2cc(C)sc2-c2ccc(C)c(C)c2)C1 [Ex. 6.36] | 2 | 15
20 | COc1ccccc1-c1ccc(C)cc1C(=O)N1CCC[C@@]1(C)c1nc2cc(C(F)(F)F)ccc2[nH]1 [Ex. 5.185] | 283 | 91
21 | COc1cc2nc([C@@H]3[C@@H](C)CCN3C(=O)c3ccccc3-n3cccn3)[nH]c2cc1OC [Ex. 4.56] | 2620 | 283
22 | Cc1ccc(-c2ccccn2)c(C(=O)N2CCC[C@@]2(C)c2nc3cc(OC(F)(F)F)ccc3[nH]2)c1 [Ex. 5.239] | 594 | 35
23 | CO[C@H]1CN(C(=O)c2nc(C)sc2-c2ccccc2)C(C)(c2nc3c(C)cccc3[nH]2)C1 (stereo partly drawn) [Ex. 3.29] | 20 | 28

Next, values leading:

Row | IC50 (human orexin-2 receptor) [nM] | IC50 (human orexin-1 receptor) [nM] | Structure (SMILES)
24 | 50 | 1490 | CSc1ccc2[nH]c([C@@H]3CCCN3C(=O)c3nc(C)ccc3-n3nccn3)nc2c1 [Ex. 1.180]
25 | 2 | 57 | C=C1C[C@@H](c2nc3cc(C(C)(C)C)ccc3[nH]2)N(C(=O)c2cc(C)ccc2-n2nccn2)C1 [Ex. 6.66]
26 | 21 | 127 | C=C1C[C@@H](c2nc3cc(Cl)c(C(F)(F)F)cc3[nH]2)N(C(=O)c2c(C)cccc2-n2nccn2)C1 [Ex. 6.183]
27 | 18 | 10 | Cc1cc(C(=O)N2CCC[C@@]2(C)c2nc3c(C)cccc3[nH]2)c(-n2nccn2)cc1C [Ex. 5.51]
28 | 7 | 16 | CO[C@@H]1C[C@@H](c2nc3ccc(Cl)c(C)c3[nH]2)N(C(=O)c2c(-n3nccn3)ccc(C)c2F)C1 [Ex. 3.13]
29 | 72 | 259 | C=C1C[C@@H](c2nc3cc(C(C)(C)C)ccc3[nH]2)N(C(=O)c2c(-n3nccn3)ccc(OC)c2F)C1 [Ex. 6.163]
30 | 103 | 10 | Cc1ccc(-c2ccccn2)c(C(=O)N2CC[C@H](C)[C@H]2c2nc3cc(Cl)c(C)cc3[nH]2)c1 [Ex. 4.102]
31 | 6 | 12 | C=C1C[C@@H](c2nc3cc(Cl)c(C(F)(F)F)cc3[nH]2)N(C(=O)c2ccc(C)cc2-n2nccn2)C1 [Ex. 6.182]
32 | 5 | 93 | CSc1ccc2[nH]c([C@@H]3CCCN3C(=O)c3cc(C)ccc3-n3nccn3)nc2c1 [Ex. 1.7]
33 | 17 | 279 | CSc1cccc2nc([C@@H]3CCCN3C(=O)c3ccccc3-n3nccn3)[nH]c12 [Ex. 1.76]
34 | 248 | 98 | Cc1nc(C(=O)N2CCC[C@H]2c2nc3cc(Cl)ccc3[nH]2)c(-c2cccc(Cl)c2)s1 [Ex. 1.10]
35 | 9 | 76 | CSc1cccc2nc([C@@H]3CCCN3C(=O)c3cc(Cl)ccc3-n3nccn3)[nH]c12 [Ex. 1.165]
36 | 20 | 258 | CSc1cccc2nc([C@@H]3CCCN3C(=O)c3c(C)cccc3-n3nccn3)[nH]c12 [Ex. 1.170]
37 | 0.6 | 0.9 | C=C1C[C@@H](c2nc3ccc(Cl)c(C)c3[nH]2)N(C(=O)c2nc(C)sc2-c2cccc(C)c2)C1 [Ex. 6.122]
38 | 3 | 15 | C=C1C[C@@H](c2nc3cc(OC)ccc3[nH]2)N(C(=O)c2nc(C)sc2-c2cccc(C)c2)C1 [Ex. 6.7]
39 | 4 | 17 | C=C1C[C@@H](c2nc3ccc(Cl)c(C)c3[nH]2)N(C(=O)c2nc(C)ccc2-n2nccn2)C1 [Ex. 6.127]
40 | 13 | 89 | C=C1C[C@@H](c2nc3cc(C)c(C)cc3[nH]2)N(C(=O)c2nc(C)ccc2-n2nccn2)C1 [Ex. 6.202]

Row | IC50 (human orexin-2 receptor) [nM] | IC50 (human orexin-1 receptor) [nM] | Structure (SMILES)
41 | 27 | 109 | CSc1ccc2nc([C@@H]3CCCN3C(=O)c3nc(C)sc3-c3cccc(Cl)c3Cl)[nH]c2c1 [Ex. 1.36]
42 | 54 | 3930 | COc1ccc2[nH]c([C@@H]3CCCN3C(=O)c3nc(C)ccc3-n3nccn3)nc2c1 [Ex. 1.173]
43 | 720 | 17 | Cc1ccc(C(=O)N2CCC[C@@]2(C)c2nc3cc(C)c(C)cc3n2C)c(-n2nccn2)c1 [Ex. 7.11]
44 | 4 | 96 | CO[C@@H]1C[C@@H](c2nc3ccc(Cl)c(C)c3[nH]2)N(C(=O)c2ccc(C)cc2-n2nccn2)C1 [Ex. 3.15]
45 | 62 | 154 | COc1cccc(-c2sc(C)nc2C(=O)N2CCC[C@H]2c2nc3ccc(SC)cc3[nH]2)c1 [Ex. 1.37]
46 | 19 | 3 | Cc1ccc(C(=O)N2CC[C@H](C)[C@H]2c2nc3c(C)c(Cl)ccc3[nH]2)c(-n2nccn2)c1 [Ex. 4.62]
47 | 12 | 6 | Cc1ccc(-n2nccn2)c(C(=O)N2C[C@H](F)C[C@H]2c2nc3c(C)c(Cl)ccc3[nH]2)c1 [Ex. 2.5]
48 | 84 | 127 | CSc1cccc2nc([C@@H]3CCCN3C(=O)c3nc(C)sc3-c3ccc(F)c(F)c3)[nH]c12 [Ex. 1.67]
49 | 76 | 528 | CSc1cccc2[nH]c([C@@H]3CCCN3C(=O)c3nc(C)ccc3-n3nccn3)nc12 [Ex. 1.175]
50 | 20 | 14 | CSc1cccc2nc([C@@H]3CCCN3C(=O)c3cncnc3-c3ccc(Br)c(Cl)c3)[nH]c12 [Ex. 1.84]
51 | 69 | 102 | CO[C@H]1C[C@@H](c2nc3ccc(Cl)c(C)c3[nH]2)N(C(=O)c2cc(C)ccc2-n2nccn2)C1 [Example 3.1, ((2S,4S)-2-(6-chloro-7-methyl-1H-benzo[d]imidazol-2-yl)-4-methoxypyrrolidin-1-yl)(5-methyl-2-(2H-1,2,3-triazol-2-yl)phenyl)methanone]
52 | 3 | 83 | C=C1C[C@@H](c2nc3cc(SC)ccc3[nH]2)N(C(=O)c2cc(C)ccc2-n2nccn2)C1 [Ex. 6.60]
53 | 46 | 202 | Cc1ccc(-n2nccn2)c(C(=O)N2CCC[C@H]2c2nc3cccc(Cl)c3[nH]2)c1 [Ex. 1.6]
54 | 131 | 425 | Cc1nc(C(=O)N2CC(F)(F)C[C@H]2c2nc3c(C)cccc3[nH]2)c(-c2ccccc2)s1 [Ex. 2.4]
55 | 48 | 37 | Cc1nc(C(=O)N2CCCC2c2nc3cc(Br)cc(C)c3[nH]2)c(-c2ccccc2)s1 (stereo not drawn) [Ex. 1.131]
56 | 23 | 74 | CSc1ccc2nc([C@@H]3CCCN3C(=O)c3nc(C)sc3-c3ccc(C)cc3)[nH]c2c1 [Ex. 1.40]
57 | 1130 | 365 | COc1cc2nc([C@@H]3[C@@H](C)CCN3C(=O)c3c(F)cccc3-n3nccn3)[nH]c2cc1OC [Ex. 4.42]
